Some test systems named below: HCC-2998 colon; HCT-15 colon; HT29 colon; M14 melanoma; MCF7 breast; OVCAR-3 ovarian; OVCAR-8 ovarian; RXF 393 renal; SN12C renal; SR leukemia.
Holding throughout (assay): NCI-60 cell line screen, 48 h

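Grown in 96-well plates, cells were treated for 48 hours with each compound at five concentrations. Insufficient inhibition: endpoint recorded as highest concentration tested. GI50 = concentration required for 50% inhibition of growth. TGI is the concentration that stops growth completely.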 Where only a bound is given, the exact number is not on record here.

With `CCOC(=O)C1Cc2c(cc3c4c(cccc24)N(C(C)=O)C3)N(C)C1` (stereo not drawn), the TGI in the test on HCC-2998 colon is greater than 100000 nM; in the test on HCT-15 colon it was greater than 100000 nM; with HT29 colon it was greater than 100000 nM; in the test with M14 melanoma, greater than 100000 nM; in the test with MCF7 breast, greater than 100000 nM; in the test on OVCAR-3 ovarian, 3270 nM. Also, the TGI with OVCAR-8 ovarian was greater than 100000 nM; in the test with RXF 393 renal, 44700 nM; in the test with SN12C renal, greater than 100000 nM; in the test with SR leukemia, greater than 100000 nM.

As for `CCN1C(=S)N(c2ccccc2)C2NC(=S)N(/N=C/C=C/c3ccccc3OC)C21` (stereo not drawn), the GI50 in the test with HCC-2998 colon was 538 nM; in the test on HCT-15 colon, 344 nM; with HT29 colon, 329 nM; with M14 melanoma it was 304 nM; in the test with MCF7 breast it was 331 nM; in the test on OVCAR-3 ovarian, 267 nM. Besides, the GI50 with OVCAR-8 ovarian was 487 nM; with RXF 393 renal, 189 nM; in the test on SN12C renal, 541 nM; in the test with SR leukemia it was 300 nM. In addition, the TGI with HCC-2998 colon is greater than 100000 nM; with HCT-15 colon, greater than 100000 nM; in the test on M14 melanoma, greater than 100000 nM; with MCF7 breast, greater than 100000 nM; with OVCAR-3 ovarian, 721 nM; in the test with OVCAR-8 ovarian, greater than 100000 nM. The results for the TGI in the test with RXF 393 renal and with SN12C renal were 650 nM and greater than 100000 nM, respectively.

Consider `COc1cc(C2Cc3ncccc3-c3[nH]c(=O)c4cccnc4c32)cc(OC)c1OC` (stereo not drawn), for which the GI50 is 2240 nM with HCC-2998 colon; 809 nM with HCT-15 colon; 347 nM in the test on HT29 colon; 405 nM with M14 melanoma; 277 nM in the test on MCF7 breast; 323 nM in the test on OVCAR-3 ovarian. Besides, the GI50 in the test on OVCAR-8 ovarian was 970 nM; in the test on RXF 393 renal, 289 nM; in the test with SN12C renal, 1190 nM; with SR leukemia, 281 nM. The TGI was greater than 100000 nM in the test on HCC-2998 colon; greater than 100000 nM in the test on HCT-15 colon; greater than 100000 nM in the test on HT29 colon; greater than 100000 nM in the test with M14 melanoma; greater than 100000 nM in the test with MCF7 breast; 5490 nM in the test on OVCAR-3 ovarian. In addition, the TGI in the test with OVCAR-8 ovarian is greater than 100000 nM; in the test on RXF 393 renal, 2010 nM; in the test with SN12C renal, greater than 100000 nM; in the test with SR leukemia, greater than 100000 nM.

With `O=S(=O)(NCCCNc1nccc(-c2c(-c3ccc(O)cc3)nc3sccn23)n1)c1ccc(F)cc1`, the GI50 with HCC-2998 colon was 3370 nM; with HCT-15 colon it was 2610 nM; in the test on HT29 colon, 1520 nM; in the test on M14 melanoma, 64 nM; in the test on MCF7 breast, 2160 nM; with OVCAR-3 ovarian, 2660 nM. Further, the GI50 with OVCAR-8 ovarian is 1570 nM; in the test with RXF 393 renal, 2740 nM; in the test on SN12C renal, 1840 nM; in the test on SR leukemia, 2070 nM. Further, the TGI is 6930 nM with HCC-2998 colon; 10000 nM with HCT-15 colon; 17200 nM in the test on HT29 colon; 2800 nM in the test with M14 melanoma; 5910 nM in the test on MCF7 breast; 12100 nM with OVCAR-3 ovarian. The TGI was 13300 nM in the test with OVCAR-8 ovarian, greater than 100000 nM in the test with RXF 393 renal, greater than 100000 nM in the test on SN12C renal and greater than 100000 nM with SR leukemia.
